The values that follow come from PubChem BioAssay (NCI).

Usually TGI stands for the concentration at which net growth stops. Higher therefore signals less potent growth arrest. In general, GI50 refers to the concentration at which growth is held to half of that of the control.

Test systems include SK-MEL-5 melanoma; SF-539 CNS; NCI-H226 lung; SF-268 CNS; COLO 205 colon; MOLT-4 leukemia; RPMI-8226 leukemia; IGROV1 ovarian; OVCAR-3 ovarian.
What all share (assay): DTP human tumour cell line panel, 48 h

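How tested: cells in 96-well plates exposed to compound for 48 hours at five concentrations. GI50 is the concentration that inhibits growth by half. Definition used: TGI = concentration required for complete inhibition of growth.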 A value given as a limit tells only on which side of the number the result lay.

Take `CC(C)(C)N/N=C(\Cc1occc(=O)c1O)C(=O)Nc1ccc([N+](=O)[O-])cc1[N+](=O)[O-]`: the TGI with SK-MEL-5 melanoma, with SF-539 CNS, with NCI-H226 lung, in the test on SF-268 CNS, in the test with COLO 205 colon and in the test with MOLT-4 leukemia was above 100 µM throughout. Besides, the TGI in the test on RPMI-8226 leukemia and in the test on IGROV1 ovarian was above 100 µM each time.
As for `[C-]#[O+].[Cl][Sn]([Cl])[Cl].[Cl][Sn]([Cl])[Cl].[Pt].c1ccc([PH+](c2ccccc2)c2ccccc2)cc1.c1ccc([PH+](c2ccccc2)c2ccccc2)cc1`, the GI50 in the test with SK-MEL-5 melanoma is 31.5 µM; in the test with SF-539 CNS, 92.3 µM; with OVCAR-3 ovarian, 62.1 µM; in the test with SF-268 CNS it was 23 µM; in the test on COLO 205 colon it was above 100 µM; in the test with RPMI-8226 leukemia, 27.7 µM. The GI50 with IGROV1 ovarian is 20.9 µM. The TGI in the test with SK-MEL-5 melanoma is above 100 µM; in the test with SF-539 CNS it was above 100 µM; with OVCAR-3 ovarian, above 100 µM; with SF-268 CNS, 51.1 µM; in the test with COLO 205 colon, above 100 µM; with RPMI-8226 leukemia, 80.3 µM. The TGI with IGROV1 ovarian was above 100 µM.
Regarding `NC(N)=NS(=O)(=O)c1ccc(Nc2c3ccccc3nc3c(C(=O)N4CCN(CCO)CC4)cccc23)cc1`, the TGI in the test with SK-MEL-5 melanoma, with SF-539 CNS, in the test on OVCAR-3 ovarian, with NCI-H226 lung, in the test on SF-268 CNS and in the test with COLO 205 colon was above 100 µM each time. Moreover, the TGI in the test with MOLT-4 leukemia and in the test on IGROV1 ovarian was above 100 µM each time.
For `O=C(CC(=O)c1ccc([N+](=O)[O-])cc1)C(=O)Nc1nccs1`, the TGI with SK-MEL-5 melanoma, in the test with SF-539 CNS, in the test on OVCAR-3 ovarian, in the test on NCI-H226 lung, in the test on SF-268 CNS and with COLO 205 colon was above 100 µM in each case. Further, the TGI with MOLT-4 leukemia, in the test on RPMI-8226 leukemia and in the test with IGROV1 ovarian was above 100 µM each time.
Turning to `N=CCCN(CCC=N)c1ccc(/C=C2\CN(NC(=O)c3ccc(Cl)cc3)C(c3ccccc3)=N2)cc1`, the TGI in the test on SK-MEL-5 melanoma, in the test on SF-539 CNS, in the test on OVCAR-3 ovarian, in the test with NCI-H226 lung, in the test with SF-268 CNS and in the test with COLO 205 colon was above 100 µM throughout. For the same compound, the TGI is above 100 µM with MOLT-4 leukemia, 53.6 µM in the test on RPMI-8226 leukemia and above 100 µM with IGROV1 ovarian.
Turning to `O=C1c2cccc3cc([N+](=O)[O-])cc(c23)C(=O)N1NC1=NCCN1`, the TGI with SK-MEL-5 melanoma, in the test with SF-539 CNS, in the test with OVCAR-3 ovarian, in the test with NCI-H226 lung, with SF-268 CNS and with COLO 205 colon was above 100 µM each time. Also, the TGI in the test on MOLT-4 leukemia, in the test on RPMI-8226 leukemia and in the test with IGROV1 ovarian was above 100 µM in each case.
In the case of `CC(=O)[CH-]C(=O)c1ccccc1.CC(=O)[CH-]C(=O)c1ccccc1.COc1cccc([O-])c1[O-].[Ti+4]`, the GI50 in the test on SK-MEL-5 melanoma is 93.3 µM; with SF-539 CNS it was 24.4 µM; in the test on OVCAR-3 ovarian, 40.5 µM; in the test with NCI-H226 lung it was 15.9 µM; with SF-268 CNS, 47.6 µM; in the test with COLO 205 colon, 37.9 µM. Moreover, the GI50 in the test with MOLT-4 leukemia was 33.1 µM; in the test on RPMI-8226 leukemia, 57.1 µM; in the test with IGROV1 ovarian, above 100 µM. Besides, the TGI with SK-MEL-5 melanoma was above 100 µM; with SF-539 CNS, 65.6 µM; in the test with OVCAR-3 ovarian, above 100 µM; with NCI-H226 lung, 73 µM; in the test with SF-268 CNS, above 100 µM; with COLO 205 colon it was above 100 µM. In addition, the TGI in the test on MOLT-4 leukemia, in the test on RPMI-8226 leukemia and in the test on IGROV1 ovarian was above 100 µM throughout.
Regarding `N#CCCN(CCC#N)C(=O)c1cccc(C(=O)N(CCC#N)CCC#N)c1`, the TGI was above 100 µM in the test with SK-MEL-5 melanoma; above 55.3 µM in the test on SF-539 CNS; above 100 µM in the test with OVCAR-3 ovarian; above 100 µM with SF-268 CNS; above 100 µM in the test on COLO 205 colon; above 100 µM in the test with MOLT-4 leukemia. The TGI is above 85.1 µM in the test on RPMI-8226 leukemia and above 100 µM in the test on IGROV1 ovarian.
With `CN(C)c1ccc2c(c1)CN1C(=O)c3ccccc3C1=N2`, the GI50 in the test with SK-MEL-5 melanoma, in the test on SF-539 CNS, with OVCAR-3 ovarian, in the test with NCI-H226 lung, in the test with COLO 205 colon and in the test on MOLT-4 leukemia was above 100 µM in each case. Also, the GI50 with RPMI-8226 leukemia and in the test with IGROV1 ovarian was above 100 µM in each case. The TGI in the test with SK-MEL-5 melanoma, with SF-539 CNS, in the test on OVCAR-3 ovarian, with NCI-H226 lung, with COLO 205 colon and in the test on MOLT-4 leukemia was above 100 µM each time. The TGI with RPMI-8226 leukemia and in the test with IGROV1 ovarian was above 100 µM throughout.
Consider `[N-]=[N+]=Nc1ccc(CCN2CCN(c3cccc(C(F)(F)F)c3)CC2)cc1I`, for which the TGI in the test on SK-MEL-5 melanoma, with SF-539 CNS, in the test with OVCAR-3 ovarian, in the test on NCI-H226 lung, in the test on SF-268 CNS and in the test with COLO 205 colon was above 100 µM throughout. The TGI was above 100 µM in the test with MOLT-4 leukemia and 69.4 µM with RPMI-8226 leukemia.
With `CC1(C)OC(=O)[C@@](C)([C@H](O)c2ccccc2)O1`, the TGI in the test on SK-MEL-5 melanoma, with SF-539 CNS, with OVCAR-3 ovarian, in the test with NCI-H226 lung, in the test on SF-268 CNS and with MOLT-4 leukemia was above 100 µM each time. This compound came in with a TGI in the test with IGROV1 ovarian above 100 µM.
As to `C[C@@H](C1CCC2C3C(=CC(=O)[C@@]21C)[C@H](C)[C@]1(CCC(=O)O1)C1OC31)[C@H]1C[C@]2(C)O[C@@](C)(O1)OC2(C)C` (stereo partly specified), the TGI with SK-MEL-5 melanoma, with SF-539 CNS, in the test on SF-268 CNS, in the test on COLO 205 colon, in the test on MOLT-4 leukemia and with RPMI-8226 leukemia was above 100 µM in each case. Also, the TGI in the test with IGROV1 ovarian was above 100 µM.
